Measured values as given in patent US10111884B2, “Methods and compositions for treating viral infections” (THE HONG KONG UNIVERSITY OF SCIENCE AND TECHNOLOGY, priority 2012, dated 2018).
Where two headings read alike, the source gives them in different places.

Key:
[1] = male rats, 50 mg/kg for 14 days; cited from earlier work
[2] = tested on: human foreskin fibroblasts (HFF) cells; assay: Cytotoxicity observed alongside plaque reduction assay; assay type: cell-based
CMV [3] = assay: CMV antiviral activity in retinal epithelial cells (RPE) culture; assay type: cell-based, human cytomegalovirus
Protocol: (§1) Antiviral activity of artemisone was determined by applying various drug concentrations to a growing virus in cell culture, using a standard plaque reduction assay. Artesunate, a compound known to have significant anti-viral activity, was tested in parallel. Ganciclovir was used as an additional positive control. The IC50 values of at least three separate experiments with each drug and virus were averaged, and the results are reported as mean±standard deviation values. Representative curves of plaque reduction assay for artemisone and artesunate are depicted in FIGS. 2A and 3A, respectively.

[4] = tested on: HCMV strain AD169 pp65 antigen; assay: Immunofluorescence assay of viral late (pp65) gene expression; assay type: cell-based, human cytomegalovirus; settings: 72 hpi; for viral late (pp65) gene expression (in words): 25 μM
Protocol: (§2) Human foreskin fibroblasts (HFF) were infected with HCMV strain AD169. At 1 hour post infection (hpi), artemisone (25 μM) or ganciclovir (25 μM) were added to the growth medium, and the cells were further incubated in the presence of the drug, until prepared for immunofluorescence analysis at 24 and 72 hpi—to analyze the expression of IE and pp65, respectively. Control untreated infected cells, and mock-infected cells were analyzed in parallel.
(§3) Cells grown on 8-well glass slides were infected at a multiplicity of infection (moi) of 0.1 PFU/cell. Supernatant was removed at 24 and 72 hpi, and cells were washed 3 times with PBS and fixed with 3.7% formaldehyde for 30 minutes at room temperature. Cells were washed 5 times with PBS+1% NH4Cl, permeabilized by 0.1% TX100 for 5 minutes and washed 5 times with PBS+1% NH4Cl. After 1 hour of blocking using 1% BSA in PBS, the indicated primary monoclonal antibodies (IE1/2 or pp65) were added to the cells in appropriate dilution in 0.5% BSA in PBS and incubated either at room temperature for 2 hours or overnight at 4° C. The secondary antibody was added to the cells in appropriate dilution in PBS containing 0.5% BSA for 30 minutes at room temperature and washed by PBS.
(§4) Following mounting with commercial mounting media, with addition of 4′,6-diamidino-2-phenylindole (DAPI) nuclear stain (yielding nuclear blue stain in all cells), the cells were analyzed by fluorescence microscopy. Results were monitored on at least 3 independent experiments, scoring at least 5 fields (of between 500 and 800 cells each) for each treatment arm.

human endothelial cells = settings: D'Alessandro et al., 2007; cited from earlier work
[5] = preclinical in vitro and in vivo screens; cited from earlier work
CMV [6] = assay: Quantification of viral DNA in infected cells by real-time PCR (CMV gB gene); assay type: cell-based, human cytomegalovirus; settings: FIGS. 2B, 3B
Protocol: Viral DNA quantity in infected cells with and without added drugs (expressed as genome copies/well) was determined by real-time PCR assay, following DNA extraction from cells, with the use of primers and probe derived from the CMV gB gene.
The results of Example 1 were confirmed by quantitation of viral DNA using real-time PCR. […] Representative curves of viral DNA accumulation for artemisone and artesunate are depicted in FIGS. 2B and 3B, respectively.

[7] = tested on: HCMV strain AD169 IE1/2 antigen; assay: Immunofluorescence assay of viral immediate early (IE1/2) gene expression; assay type: cell-based, human cytomegalovirus; settings: 24 hpi; for viral IE gene expression (in words): 25 μM
Protocol: as §2, §3, §4

CMV [8] = assay: CMV plaque reduction assay in HFF monolayers; assay type: cell-based, human cytomegalovirus
Source text: The CMV strains used were: AD169 (obtained from the American Type Culture Collection), and TB40/E. In addition, low-passage clinical isolates CI704, and CI893, recovered at the Hadassah Clinical Virology Laboratory from the urine of congenitally-infected newborns, and propagated for 3-5 passages, were used for some experiments. All CMV strains were propagated and titered in human foreskin fibroblasts (HFF) cells. Cell-free virus stocks and cell-associated clinical isolates were maintained at −70° C. Viral stocks were titered by serial 10-fold dilution in 24-well tissue culture plates containing HFF monolayers overlaid with agarose-medium. After incubation for 7 to 10 days, plaques were enumerated, and virus titer was determined as plaque forming units (PFU) per milliliter (ml). Stocks of artemisone, artemiside, RW177, compound IX, and artesunate were freshly prepared at 10 mM concentration in DMSO. Ganciclovir, stored as 10 mM stock was used in comparative assays.
Cell monolayers were inoculated in 24-well culture plates with 0.2 ml of virus suspension containing 60 to 100 PFU per well. After adsorption for 60 min at 37° C., the inoculum was removed, and culture medium was replaced with agarose-medium overlay containing the tested drug. The following final drug concentrations were used: Artemisone: 0, 0.1, 1, 5, 10, 25, and 50 μM; Artesunate: 0, 1, 5, 10, 25, 50, and 100 μM; Ganciclovir, artemiside, compound IX and RW177: 0, 0.1, 1, 5, 10, 25, and 50 μM. Plates were incubated for 10 days at 37° C. in a 5% CO2 incubator. Plaques were then counted microscopically. The drug concentration required to reduce the number of plaques to 50% of the control value (IC50), was calculated.
as §1

HCMV strain TB40/E = assay: Antiviral drug susceptibility in ex-vivo HCMV-infected decidual organ cultures (normalized viral DNA); assay type: cell-based, human cytomegalovirus; settings: Human betaherpesvirus 5, TB40/E 10^5 PFU/well, 8 dpi, read-out: IC50 (drug concentration required to reduce normalized tissue viral DNA copy number by 50%)
Protocol: For infection of decidual organ cultures, the tissues were placed in 48-well plates (˜5 slices/well to maintain optimal viability) immediately after the sectioning and inoculated with the indicated virus (10^4 plaque forming units/well, unless indicated otherwise) for 12 hours to allow effective viral adsorption. Following viral adsorption, the cultures were washed extensively and further incubated for the duration of the experiment with replacement of the culture medium every 2-3 days.
DNA and RNA were extracted from the samples using the QIAamp DNA Mini Kit extraction kit and RNeasy Mini Kit (QIAGEN, Hilden, Germany) respectively, according to the manufacturer's instructions. The purified DNA samples were subjected to a quantitative real-time PCR reaction on a 7900HT Real Time PCR system (Applied Biosystems, Foster City, Calif., USA), using primers and probes derived from the HCMV glycoprotein B (gB) as described in Boeckh et al., 2004, J. Clin. Microbiol., 42, 1142-1148. […] The purified RNA samples were subjected to reverse transcription using GoScript™ (Promega, Madison, USA), followed by quantitative real-time PCR of the late HCMV R160461 spliced mRNA as described in White et al., 2004, J. Virol., 78, 1817-1830. […]

[9] = pp65 antigen, drug 25 μM, HFF, AD169
[10] = IE1 ± IE2 antigen, drug 25 μM, HFF, AD169
[11] = Human betaherpesvirus 5, 240 h, read-out: IC50 (drug concentration required to reduce the number of plaques to 50% of control), mean ± standard deviation

## CC1CCC2[C@@H](C)[C@H](N3CCS(=O)(=O)CC3)OC3O[C@]4(C)CCC1C32OO4 (stereo in doubt) [Artemisone]
[1]
  tolerability: no effect as compared to controls
[2]
  cytotoxicity: no cytotoxicity
CMV [3]
  antiviral activity compared to artesunate: Superior antiviral activity
[4]
  viral late (pp65) gene expression (in words): highly efficient reduction
[4]; [9]
  CMV antigen-positive cells (%): 0%
Human endothelial cells
  anti-angiogenic effect compared to dihydroartemisinin: significantly less anti-angiogenic than dihydroartemisinin
[5]
  neurotoxicity: does not elicit neurotoxicity
CMV [6]
  antiviral efficacy by quantitation of viral DNA: far superior to that of artesunate
[7]
  viral IE gene expression (in words): significant reduction
[7]; [10]
  CMV antigen-positive cells (%): 0%
CMV [8]; [11]
  IC50: 900 ± 300 nM
CMV [8]; Human betaherpesvirus 5, representative curve, FIG. 2A / FIG. 3A, read-out: IC50 value for this assay (inhibition of CMV plaque formation, dose response curve)
  IC50: 1200 nM

## C[C@H]1[C@H](OC(=O)CCC(=O)O)O[C@@H]2O[C@@]3(C)CC[C@H]4[C@H](C)CC[C@@H]1[C@@]24OO3 [Artesunate, artesunate, reference compound]
CMV [8]; [11]
  IC50: 10800 ± 4200 nM
CMV [8]; Human betaherpesvirus 5, read-out: IC50 value for this assay (inhibition of CMV plaque formation, dose response curve)
  IC50: 15000 nM

## Nc1nc(O)c2ncn(COC(CO)CO)c2n1 [Ganciclovir, ganciclovir]
[4]
  viral late (pp65) gene expression (in words): highly efficient reduction
[4]; [9]
  CMV antigen-positive cells (%): 0.18%
  CMV antigen-positive cells per field (N): 1 ± 0.25
HCMV strain TB40/E
  IC50: 1500 nM
[7]
  viral IE gene expression (in words): did not inhibit IE gene expression
[7]; [10]
  CMV antigen-positive cells (%): 5.97%
  CMV antigen-positive cells per field (N): 33 ± 5

## Nc1nc2c(ncn2COCCO)c(=O)[nH]1 [acyclovir]
HCMV strain TB40/E
  IC50: 18300 nM

## C[C@H]1[C@H](N2CCSCC2)O[C@@H]2O[C@@]3(C)CC[C@H]4[C@H](C)CC[C@@H]1[C@@]24OO3 [artemiside, reference compound]
CMV [8]; [11]
  IC50: > 40000 nM

## CC1CCC2[C@@H](C)[C@H](NS(N)(=O)=O)OC3O[C@]4(C)CCC1C32OO4 (stereo partly drawn) [compound IX]
CMV [8]; Human betaherpesvirus 5, 240 h, at least three separate experiments averaged, 10 days incubation, read-out: IC50 (drug concentration required to reduce the number of plaques to 50% of control), mean ± standard deviation
  IC50: 2100 ± 600 nM
